Where two headings read alike, the source gives them in different places.
Assays:
[1] = system: DU 145 Human Prostate Carcinoma Xenografts; conditions: DU145; for MDS (n) / Complete Response / Partial Response / Stable Disease / Survivors / Mean Score / Toxic Deaths: i.v. qd x 1 (mg/kg: Taxol 24, 1351 107.6, 1393 72.6, 1401 107.6, 1418 107.6, 1424 195.1); for MDS (n) / Complete Response / Partial Response / Stable Disease / Survivors / Toxic Deaths: 5 mice/group, Day 91; for MDS (n): 1.5 g cut-off; for Mean Score: tumor score 1 to 10, group mean
Method: (§1) Other antitumor compounds were similarly formulated. […] The dosing volume was 0.3 ml per 20 g mouse.
Male NCr-nude mice (implanted subcutaneously with 1 mm^3 DU145 prostate carcinoma fragments in the flank) were sorted into treatment groups of five mice each. […] Dosing was initiated on Day 1. The antitumor compounds were given i.v. at an estimated maximum tolerated dose (MTD) appropriate for each agent on a qd x 1 schedule (single administration of compound). […] The vehicle was administered i.v. to control mice in Group 1 on the qd x 1 schedule. The study was terminated on Day 91. Treatment groups are detailed in Table 5.
(§2) The mean days of survival is the number of days after which a neoplasm reached a size of 1.5 g and the animal was euthanized. A complete response is obtained if the tumor is not palpable at the end of the study. A partial response is obtained if the tumor shrinks to a size smaller than its size on Day 1 of the study. […]

[2] = system: A375 Human Melanoma Xenografts; conditions: for Complete Response / Partial Response / Stable Disease / Survivors / Mean Score / MDS (n) / Toxic Deaths / survival extension compared to Group 1 controls: A375; for Complete Response / Partial Response / Stable Disease / Survivors / Mean Score / MDS (n) / Toxic Deaths: i.v. qd x 1 (mg/kg: Taxol 24, 1351 107.6, 1393 72.6, 1401 107.6, 1418 107.6, 1424 195.1, Taxotere 70); for Complete Response / Partial Response / Stable Disease / Survivors / MDS (n) / Toxic Deaths: Day 60; for Mean Score: tumor score 1 to 10, group mean; for MDS (n): 2.0 g cut-off; for survival extension compared to Group 1 controls: i.v. qd x 1 (mg/kg: Taxol 24, 1393 72.6, 1418 107.6, Taxotere 70)
Method: as §1
Female NCr-nude mice (implanted subcutaneously with 1 mm^3 A375 melanoma in the flank) were sorted into treatment groups of six mice each, except for the Taxotere group having seven mice each. […] Dosing was initiated on Day 1. The antitumor compounds were given i.v. at an estimated maximum tolerated dose (MTD) appropriate for each agent on a qd x 1 schedule (single administration of compound). […] Taxotere was given i.v. on a qd x 1 schedule at a dose of 70 mg/kg. The vehicle was administered i.v. to control mice in Group 1 on the qd x 1 schedule. Treatment groups are detailed in Table 9. The study was terminated on Day 60.
as §2, with “The results are summarized in Table 10 and include mean days of survival (MDS), number of toxic deaths, number of survivors, number of complete or partial responses, and number with stable disease. The” for “The”, “tumor” for “neoplasm”, “2.0” for “1.5”

[3] = system: Panc-1 Human Pancreatic Carcinoma Xenografts; conditions: for mean group weight losses / tolerability: mouse, in vivo
Method: (§3) Other antitumor compounds were similarly formulated. […] The dosing volume was 0.3 mL per 20 g mouse.
Female NCr-nude mice (6-8 weeks of age, implanted subcutaneously with 1 mm^3 Panc-1 pancreatic carcinoma fragments in the flank) were sorted into treatment groups of six mice each. […] Dosing was initiated on Day 1. The antitumor compounds were given i.v. at an estimated maximum tolerated dose (MTD) appropriate for each agent on a qd x 1 schedule (single administration of compound). […] Taxotere was given i.v. at a dose of 70 mg/kg on a qd x 1 schedule. The vehicle was given i.v. to control mice in Group 1 in each test on Day 1 (qd x 1) schedule. Treatment groups are detailed in Table 12. The study was terminated on Day 63.
The mean days of survival is the number of days after which a neoplasm reached a size of 1.5 g and the animal was euthanized. A complete response is obtained if the tumor is not palpable at the end of the study. A partial response is obtained if the tumor shrinks to a size smaller than its size on Day 1 of the study.

[4] = system: VM46 Human Colon Carcinoma Xenografts; conditions: for MDS (n): days until tumor reached 1.5 g; for maximal mean group weight losses / tolerability: mouse, in vivo, iv
Method: as §3
Female NCr-nude mice (6-8 weeks of age, implanted subcutaneously with 1 mm^3 VM46 colon carcinoma fragments in the flank) were sorted into treatment groups of six mice each. […] Dosing was initiated on Day 1. The antitumor compounds were given i.v. at an estimated maximum tolerated dose (MTD) appropriate for each agent on a qd x 1 schedule (single administration of compound). […] Taxotere was given i.v. at a dose of 70 mg/kg on a qd x 1 schedule. The vehicle was given i.v. to control mice in Group 1 in each test on Day 1 (qd x 1) schedule. Treatment groups are detailed in Table 13. The VM46 study ended on Day 64.
as §2, with “The results are summarized in table 14 and include mean days of survival (MDS), number of toxic deaths, number of survivors, number of complete or partial responses, and number with stable disease. The” for “The”

[5] = Panc-1, i.v. qd x 1 (mg/kg: Taxol 24, 1351 75.32, 1393 72.6, 1401 107.6, 1418 107.6, 1424 195.1), 6 mice/group
[6] = i.v. qd x 1 at estimated MTD, 6 mice/group, study end Day 63
[7] = 107.6 mg/kg i.v. qd x 1, 6 mice/group, study end Day 64
[8] = VM46, i.v. qd x 1 at estimated MTD, 6 mice/group
[9] = 70 mg/kg i.v. qd x 1, 6 mice/group, study end Day 64

| Structure (SMILES) | Complete Response [1] | Partial Response [1] | Stable Disease [1] | Survivors [1] | Mean Score [1] | Complete Response [2] | Partial Response [2] | Stable Disease [2] | Survivors [2] | Mean Score [2] | Survivors [3, 6] | Toxic Deaths [3, 6] | mean group weight losses ([3]; iv) | Complete Response [4, 7] | Mean Score [4, 7] | Partial Response [4, 7] | Stable Disease [4, 7] | Survivors [4, 7] | Toxic Deaths [4, 7] | MDS (n) [4, 7] | further results |
| --- | --- | --- | --- | --- | --- | --- | --- | --- | --- | --- | --- | --- | --- | --- | --- | --- | --- | --- | --- | --- | --- |
| CCC(=O)O[C@H]1C[C@H]2OC[C@@]2(OC(C)=O)[C@H]2[C@H](OC(=O)c3ccccc3)[C@]3(O)C[C@H](OC(=O)[C@H](O)[C@H](C=C(C)C)NC(=O)OC(C)(C)C)C(C)=C([C@@H](O)C(=O)[C@]12C)C3(C)C [Compound 1351] | 0 | 1 | 0 | 1 | 2.6 ± 1.5 | 0 | 0 | 0 | 0 | 0±0 | 4 | 0 | 3-13% | 0 | 4.5 ± 1.4 | 1 | 2 | 3 | 0 | 43.7 ± 3.4 (3) days | mortality rate ([1]; 1351 107.6 mg/kg i.v. qd x 1): 40%; weight loss in a number of the treated mice prior to their deaths ([1]; 1351 107.6 mg/kg i.v. qd x 1): over 20%; MDS (n) [1]: 62.6 ± 17.5 (2) days; mean group weight losses ([2]; mouse, in vivo, iv): 20-30%; Toxic Deaths [3, 5]: no toxic deaths; Complete Response [3, 6]: 1; Mean Score [3, 6]: 5.7 ± 1.3; Partial Response [3, 6]: 1; Stable Disease [3, 6]: 2; MDS (n) ([3]; i.v. qd x 1 at estimated MTD, 6 mice/group, study end Day 63, days until tumor reached 1.5 g): 42.5 ± 10.2 days; tolerability ([3]; iv): well-tolerated; Toxic Deaths [4, 8]: no toxic deaths; maximal mean group weight losses [4]: 3-14%; tolerability [4]: quite well-tolerated |
| CCC(=O)O[C@H]1C[C@H]2OC[C@@]2(OC(C)=O)[C@H]2[C@H](OC(=O)c3ccccc3)[C@]3(O)C[C@H](OC(=O)[C@H](O)[C@@H](NC(=O)OC(C)(C)C)c4ccoc4)C(C)=C([C@@H](O)C(=O)[C@]12C)C3(C)C [Compound 1401] | 1 | 0 | 0 | 1 | 3.6 ± 1.7 | 0 | 0 | 0 | 0 | 2±0 | 6 | 0 | 3-13% | 0 | 2.5 ± 1.3 | 1 | 0 | 1 | 1 | 46.1 ± 5.9 (4) days | MDS (n) [1]: 72.6 ± 8.7 (3) days; Toxic Deaths [1]: 1; MDS (n) [2]: 22.2 ± 1.1 (6) days; Toxic Deaths [2]: 0; Toxic Deaths [3, 5]: no toxic deaths; Complete Response [3, 6]: 0; Mean Score [3, 6]: 6.8 ± 0.8; Partial Response [3, 6]: 3; Stable Disease [3, 6]: 3; tolerability ([3]; iv): well-tolerated; Toxic Deaths [4, 8]: not more than one; maximal mean group weight losses [4]: under 12%; tolerability [4]: Acceptable toxicity |
| CCC(=O)O[C@H]1C[C@H]2OC[C@@]2(OC(C)=O)[C@H]2[C@H](OC(=O)c3ccccc3)[C@]3(O)C[C@H](OC(=O)[C@H](O)[C@@H](NC(=O)OC(C)(C)C)c4cccs4)C(C)=C([C@@H](O)C(=O)[C@]12C)C3(C)C [Compound 1418] | 1 | 2 | 1 | 4 | 7.2 ± 1.2 | 0 | 1 | – | 2 | 4 ± 1.3 | 6 | 0 | 3-13% | 0 | 3.5 ± 0.8 | 0 | 3 | 3 | 0 | 41.7 ± 3.4 (3) days | Toxic Deaths [1]: 0; total response rate ([1]; i.v. qd x 1 at estimated MTD): ≥ 50%; MDS (n) [2]: 34.5 ± 3.1 (3) days; survival extension compared to Group 1 controls [2]: 140%; Partial Responses ([3]; Panc-1, i.v. qd x 1 (mg/kg: 1393 72.6, 1418 107.6), 6 mice/group, Day 63): 5; Complete Response ([3]; iv, 1512 h): 0; Mean Score ([3]; iv, 1512 h): 8 ± 0.6; Partial Response ([3]; iv, 1512 h): 5; Stable Disease ([3]; iv, 1512 h): 1; maximal mean group weight losses [4]: 3-14% |
| CC(=O)O[C@@]12CO[C@@H]1C[C@H](O)[C@@]1(C)C(=O)[C@H](O)C3=C(C)[C@@H](OC(=O)[C@H](O)[C@@H](NC(=O)OC(C)(C)C)c4ccccc4)C[C@@](O)([C@@H](OC(=O)c4ccccc4)[C@H]21)C3(C)C [docetaxel, reference compound] | – | – | – | – | – | 0 | 0 | 0 | 0 | 2±0 | – | – | – | – | – | – | – | – | – | – | MDS (n) [2]: 21.5 ± 0.5 (7) days; Toxic Deaths [2]: 0; survival extension compared to Group 1 controls [2]: 49%; Complete Response [4, 9]: 0; Mean Score [4, 9]: 2 ± 0; Partial Response [4, 9]: 0; Stable Disease [4, 9]: 0; Survivors [4, 9]: 0; Toxic Deaths [4, 9]: 0; MDS (n) [4, 9]: 45.3 ± 3.6 (6) days; MDS ([4]; VM46, i.v. qd x 1 (Taxol 24 mg/kg, Taxotere 70 mg/kg), 6 mice/group, 1.5 g cut-off, Day 64): 45.3 days |

Reference: patent EP1285918A1, “C7 Ester substituted taxanes as antitumor agents” (Florida State University Research Foundation, Inc., priority 2001, dated 2003)
